Experimental data published in patent publication US5084563A, “Crystalline 2-O-α-D-glucopyranosyl-L-ascorbic acid, and its preparation and uses” (priority 1989, dated 1992).

Legend:
[1] = physchem; format: physicochemical; conditions: for remaining at 1 h, 70 µM / remaining at 2 h, 70 µM / remaining at 4 h, 70 µM / remaining at 18 h, 70 µM / remaining at 24 h, 70 µM: aqueous solution; for Remaining ratio: 0 min, 70 uM
Protocol: 2-O-α-D-Glucosyl-L-ascorbic acid was compared respectively to the 6-O-α-D-glucosyl-L-ascorbic acid disclosed in Japanese Patent Publication No. 38,158/73, and L-ascorbic acid for their stability in aqueous solution. More particularly, each sample was adjusted to a concentration of 70 micromoles and to pH 7.0 or 2.0, placed in a cuvette, and measured for its absorbance at either 260 nm and pH 7.0 or at 245 nm and pH 2.0 while keeping the solution at 45° C. The remaining ratio (%) was calculated with the absorbance.

[2] = Dissociation constant; format: physicochemical
Excerpt: (10) Dissociation constant The pKa is 3.0.

[3] = Physical properties: hygroscopicity, deliquescence, loss on drying; format: physicochemical; conditions: for Hygroscopicity and deliquescence: ambient conditions
Protocol: (12) Physical properties and color: Colorless and transparent crystal. […] Loss on drying at 130° C. for 2 hours is less than 0.5 w/w %. FIG. 5 is the microscopic view of a crystal growing in a supersaturated solution.

[4] = system: dd mice; assay: Acute toxicity, oral; format: in vivo
Excerpt: A crystalline 2-O-α-D-glucopyranosyl-L-ascorbic acid specimen, prepared by the method in Experiment 1, was orally administered to 7 week-old dd mice for acute toxicity test. As the result, no mouse died when administered with up to […] of the specimen, and higher dose was difficult.

[5] = Solubility in water; format: physicochemical; conditions: 25° C.
[6] = Solubility in solvents; format: physicochemical
[7] = Coloring reaction: direct reducing activity; format: biochemical; conditions: 2,6-dichlorophenolindophenol
[8] = system: α-glucosidase; assay: Hydrolysis by α-glucosidase; format: biochemical; conditions: products at molar ratio 1:1
Protocol: (§1) (14) Structual element: Hydrolyzable by α-glucosidase or by treatment with 1N hydrochloric acid at 100° C. for 5 minutes to form L-ascorbic acid and D-glucose at a molar ratio of 1:1.

[9] = Hydrolysis with 1N hydrochloric acid; format: physicochemical; conditions: 100° C., 5 minutes, products at molar ratio 1:1
Protocol: as §1

O=C1O[C@H]([C@@H](O)CO)C(O)=C1O[C@H]1O[C@H](CO)[C@@H](O)[C@H](O)[C@H]1O [2-O-α-D-glucopyranosyl-L-ascorbic acid]
remaining at 1 h, 70 µM ([1]; pH 2): 100% | remaining at 2 h, 70 µM ([1]; pH 2): 100% | remaining at 4 h, 70 µM ([1]; pH 2): 100% | remaining at 18 h, 70 µM ([1]; pH 2): 100% | remaining at 24 h, 70 µM ([1]; pH 2): 100% | remaining at 1 h, 70 µM ([1]; pH 7): 100% | remaining at 2 h, 70 µM ([1]; pH 7): 100% | remaining at 4 h, 70 µM ([1]; pH 7): 100% | remaining at 18 h, 70 µM ([1]; pH 7): 100% | remaining at 24 h, 70 µM ([1]; pH 7): 100% | pKa [2]: 3

O=C1O[C@H]([C@@H](O)CO[C@H]2O[C@H](CO)[C@@H](O)[C@H](O)[C@H]2O)C(O)=C1O [6GAsA, 6-O-α-D-glucosyl-L-ascorbic acid]
Remaining ratio ([1]; pH 2): 100% | Remaining ratio ([1]; pH 7): 100% | remaining at 1 h, 70 µM ([1]; pH 2): 99% | remaining at 2 h, 70 µM ([1]; pH 2): 98% | remaining at 4 h, 70 µM ([1]; pH 2): 90% | remaining at 18 h, 70 µM ([1]; pH 2): 25% | remaining at 24 h, 70 µM ([1]; pH 2): 12% | remaining at 1 h, 70 µM ([1]; pH 7): 88% | remaining at 2 h, 70 µM ([1]; pH 7): 72% | remaining at 4 h, 70 µM ([1]; pH 7): 43% | remaining at 18 h, 70 µM ([1]; pH 7): 7% | remaining at 24 h, 70 µM ([1]; pH 7): 4%

O=C1O[C@H]([C@@H](O)CO)C(O)=C1O [AsA, L-ascorbic acid]
Remaining ratio ([1]; pH 2): 100% | Remaining ratio ([1]; pH 7): 100% | remaining at 1 h, 70 µM ([1]; pH 2): 98% | remaining at 2 h, 70 µM ([1]; pH 2): 95% | remaining at 4 h, 70 µM ([1]; pH 2): 88% | remaining at 18 h, 70 µM ([1]; pH 2): 12% | remaining at 24 h, 70 µM ([1]; pH 2): 4% | remaining at 1 h, 70 µM ([1]; pH 7): 80% | remaining at 2 h, 70 µM ([1]; pH 7): 61% | remaining at 4 h, 70 µM ([1]; pH 7): 32% | remaining at 18 h, 70 µM ([1]; pH 7): 1% | remaining at 24 h, 70 µM ([1]; pH 7): 1%

O=C1O[C@H]([C@@H](O)CO)C(O)=C1O[C@H]1O[C@H](CO)[C@@H](O)[C@H](O)[C@H]1O [amorphous 2-O-α-D-glucopyranosyl-L-ascorbic acid] [reference compound]
Hygroscopicity and deliquescence [3]: strongly hygroscopic

O=C1O[C@H]([C@@H](O)CO)C(O)=C1O[C@H]1O[C@H](CO)[C@@H](O)[C@H](O)[C@H]1O [crystalline 2-O-α-D-glucopyranosyl-L-ascorbic acid]
Remaining ratio ([1]; pH 2): 100% | Remaining ratio ([1]; pH 7): 100% | Dose up to which no mouse died ([4]; 7 week-old dd mice, higher dose was difficult): up to 5 g | Mortality ([4]; 7 week-old dd mice, up to 5 g of the specimen): no mouse died | Toxicity ([4]; dd mice, overall conclusion): extremely low in toxicity | Solubility [5]: One hundred and twenty-five | Solubility in solvents ([6]; 0.1N acetic acid): Readily soluble | Solubility in solvents ([6]; 0.1N sodium hydroxide): Readily soluble | Solubility in solvents ([6]; benzene): insoluble | Solubility in solvents ([6]; chloroform): insoluble | Solubility in solvents ([6]; ethanol): soluble | Solubility in solvents ([6]; ether): insoluble | Solubility in solvents ([6]; ethyl acetate): insoluble | Solubility in solvents ([6]; methanol): soluble | Solubility in solvents ([6]; water): Readily soluble | Loss on drying ([3]; 130° C., 2 hours): less than 0.5 w/w % | Hygroscopicity and deliquescence [3]: Free of hygroscopicity and deliquescence | Direct reducing activity [7]: no direct reducing activity | Hydrolysis to L-ascorbic acid and D-glucose [8]: Hydrolyzable | Hydrolysis to L-ascorbic acid and D-glucose [9]: Hydrolyzable
